Data on four molecules can be found in paper PMC6757420, “Identifying the active components of Baihe–Zhimu decoction that ameliorate depressive disease by an effective integrated strategy: a systemic pharmacokinetics study combined with classical depression model tests” (Chinese Medicine, 2019).

A short description of data set [1]: pharmacokinetic study of five major components after oral administration of BZD (HPLC-QQQ MS). It is filed as in vivo, Sprague–Dawley (SD) rats. The following applies: for ER (liver extraction ratio): from portal vein plasma and systemic plasma. The procedure: The HPLC-QQQ MS method was developed according to a previous study in our group. Briefly, five compounds were simultaneously determined in plasma, liver and brain samples using a 1260 Series liquid chromatography system (Agilent Technologies, Palo Alto, CA, USA) coupled to a 6460 triple quadrupole mass spectrometer with an electrospray ionization source (Agilent Technologies, Palo Alto, CA, USA). Chromatographic separation was performed on an ACE Super C18 column (100 mm × 2.1 mm, 3.0 µm, Advanced Chromatography Technologies Ltd. Aberdeen, Scotland) at a temperature of 40 °C. The mobile phase consisted of water containing 0.1% formic acid (A) and acetonitrile containing 0.1% formic acid (B). The gradient program was performed as follows: 0–3 min, 92% A; 3.5–4.0 min, 88–60% A; 5.5–6 min, 60–55% A; 6.6–7 min, 55–5% A; 11–11.01 min, 5–92% A; 11.01–13.5 min, 92% A. The flow rate was set to 0.35 mL/min in the time range of 0–6.6 min and kept at 0.45 mL/min between 7 and 13.5 min. Five components were monitored in negative multiple reaction monitoring (MRM) mode. The parameters of the mass spectrometer were as follows: capillary voltage, 3500 V; nebulizer, 45 psi; gas temperature, 350 °C; gas flow rate, 12 L/min; sheath gas temperature, 400 °C; sheath gas flow rate, 8 L/min. MassHunter Workstation software (Agilent Technologies, Palo Alto, CA, USA) was used for system operation and data analysis.
All Sprague–Dawley (SD) rats and ICR mice were purchased from Shanghai SLAC Laboratory Animal Co., Ltd. and kept in the breeding room at 22 ± 2 °C and 50 ± 10% humidity in Shanghai Institute of Materia Medica (SIMM). The experimental protocols were approved by the Institutional Animal Care and Use Committee in SIMM. After 1 week of acclimation, all the SD rats were orally administered BZD (15 g/kg). The biological samples were collected from the rats after fasting for 12 h. After anaesthetization, the rats were dissected at 5 min, 15 min, 30 min, 1 h, 2 h, 4 h, 7 h, 10 h, 20 h and 40 h (n = 5 for each time-point). The hepatic portal vein plasma (2 mL) and the systemic plasma (6–8 mL) were subsequently harvested, and finally the liver and brain tissue samples were collected. The plasma sample were centrifuged at 9500×g for 5 min, and the tissue samples were washed with saline solution. All samples were stored at − 80 °C until analysis. The samples were prepared according to the method described in the previous study by our group.
A noncompartmental analysis was carried out using WinNonlin software (Pharsight 6.2, NC, USA) to calculate the PK parameters. The significance of the results in behavior assessment was analyzed by unpaired Student’s t-tests. A P value less than 0.05 was considered significant. The liver extraction ratio (ER) indicated the fraction of hepatic clearance and first-pass effect, and the calculation formula was as reported in a previous study by our group.

The subject of data set [2] is ICR mice. The data set is described as follows: tail suspension test (TST). The class given is in vivo. The procedure: (§1) The antidepressant activity of the drugs was evaluated by classic behavioral measurements, such as the forced swimming test (FST) and tail suspension test (TST). All the ICR mice were randomly divided into several groups (n = 8) as follows: a control group with stimulation and different test groups subjected to FST and TST after the oral administration of different drugs for 8 days, including fluoxetine (10 mg/kg), BZD (3 g/kg), ZD (3 g/kg), Baihe decoction (BD, 3 g/kg), PZ (21.2 mg/kg), XZ (21.2 mg/kg), SZ (21.2 mg/kg), timosaponin BII (10 mg/kg) and timosaponin BIII (10 mg/kg).
(§2) The FST was performed according to a previously described method with minor modifications. Briefly, each mouse was individually placed in an open water-filled cylinder (H: 50 cm; Ø: 20 cm; water depth: 35 cm; temperature: 23–25 °C) and allowed to swim for a period of 6 min. The total time of immobility was recorded during the last 4 min of the testing duration. Immobility is defined as the mice floating in the water without movement. The TST was conducted as described in the literature. Briefly, the mice were suspended 20 cm above the floor for 6 min. The time of immobility was recorded after the first 2 min. Mice in a completely motionless state were considered immobile.

A further data set relates to serotonin (5-HT). The data set is described as follows: content of serotonin (5-HT) by ELISA kit. It is filed as in vivo, ICR mice. The following applies: Table 5; 10 mg/kg oral; control 636.2 ± 80.1. The procedure:
as §1
(§3) The contents of dopamine (DA) and serotonin (5-HT) in the plasma were determined using ELISA Kits (Shanghai Jianglai Biotech Co., Ltd., Shanghai, China) according to the manufacturer’s instructions.
On the technique in general: An ELISA detects its analyte on a solid surface through an enzyme-linked reagent.

In the next data set the test system is depressive rats. The following applies: rats; by regulating inflammatory cytokines, BNDF signaling and synaptic plasticity; cited from earlier work.
The test system of data set [3] is ICR mice. The data set is described as follows: forced swimming test (FST). It is filed as in vivo. The procedure: as §1, §2
The next data set relates to dopamine (DA). The data set is described as follows: content of dopamine (DA) by ELISA kit. The class given is in vivo, ICR mice. Conditions: Table 5; 10 mg/kg oral; control 171.6 ± 54.5. The procedure: as §1, §3
Setting [4] is: Sprague-Dawley, rat, in vivo, po, 15 g/kg.
Setting [5] is: Table 4, oral administration for 8 days, n = 8, 10 mg/kg, control 102.0 ± 16.9.
Setting [6] is: cerebellum, rats, oral BZD 15 g/kg, n = 5.
[7] abbreviates: hippocampus, rats, oral BZD 15 g/kg, n = 5.
Setting [8] is: liver, rats, oral BZD 15 g/kg, n = 5.
[9] abbreviates: portal vein plasma, rats, oral BZD 15 g/kg, n = 5.
The mark [10] stands for this setting: systemic plasma, rats, oral BZD 15 g/kg, n = 5.
Where [11] appears, read: Table 4, oral administration for 8 days, n = 8, 10 mg/kg, control 118.1 ± 24.3.

Molecules are shown by their SMILES. Where “and” joins values, the source holds several entries; their conditions need not be identical. Equal values may be shown once. Where a name gives a salt, the structure may show the parent alone. Read-outs that look alike come from different tables or passages of the source.

By Cmax is commonly meant the maximum level reached in the sampled fluid or tissue. What is called Tmax is the time from dosing to the highest level. For `O=c1c2cc(O)c(O)cc2oc2cc(O)c([C@@H]3O[C@H](CO)[C@@H](O)[C@H](O)[C@H]3O)c(O)c12` [Mangiferin, mangiferin], in data set [1] (setting [4]), the Cmax turned out to be 889.36 ± 191.49 ng/mL and the Tmax came out at 1.00 h. In addition, in data set [1] (Sprague-Dawley, rat, in vivo, po, 15 g/kg, AUC0–t), the AUC(0-t) stood at 4020 ± 397 ng·h/mL. For the same molecule, the Cmax in data set [1] (Sprague-Dawley, rat, in vivo, po, 15 g/kg, Cmax) is 131 ng/g and 1760 ng/mL.
One may read the half-life as the time needed for the level to fall by half in the phase considered. As to `C[C@H]1CC[C@@]2(OC1)O[C@H]1C[C@H]3[C@@H]4CC[C@@H]5C[C@@H](O[C@@H]6O[C@H](CO)[C@H](O)[C@H](O)[C@H]6O[C@@H]6O[C@H](CO)[C@@H](O)[C@H](O)[C@H]6O)CC[C@]5(C)[C@H]4CC[C@]3(C)[C@H]1[C@@H]2C` [Timosaponin AIII, timosaponin AIII], the half-life is 10.3 h in data set [1] (Sprague-Dawley, rat, hepatic portal vein plasma, po, 15 g/kg, portal vein plasma, rats, oral BZD 15 g/kg, n = 5); 12.2 h in data set [1] (Sprague-Dawley, rat, liver, po, 15 g/kg, rats, oral BZD 15 g/kg, n = 5); 11.2 h in data set [1] (Sprague-Dawley, rat, systemic plasma, po, 15 g/kg, rats, oral BZD 15 g/kg, n = 5). Further, the AUC(0-t) is 583 ± 105 ng·h/mL in data set [1] (Sprague-Dawley, rat, hepatic portal vein plasma, po, 15 g/kg, portal vein plasma, rats, oral BZD 15 g/kg, n = 5, read-out: AUC0–t) and 156 ± 21.6 ng·h/mL in data set [1] (Sprague-Dawley, rat, systemic plasma, po, 15 g/kg, systemic plasma, rats, oral BZD 15 g/kg, n = 5, read-out: AUC0–t). In addition, the maximum concentration (Cmax) in data set [1] (Sprague-Dawley, rat, hepatic portal vein plasma, po, 15 g/kg, portal vein plasma, rats, oral BZD 15 g/kg, n = 5, read-out: Cmax) was determined as 61.8 ± 25.6 ng/mL; in data set [1] (Sprague-Dawley, rat, liver, po, 15 g/kg, liver, rats, oral BZD 15 g/kg, n = 5, read-out: Cmax), 9360 ± 244 ng/g; in data set [1] (Sprague-Dawley, rat, systemic plasma, po, 15 g/kg, systemic plasma, rats, oral BZD 15 g/kg, n = 5, read-out: Cmax) it was 16 ± 5.16 ng/mL. For the same molecule, the Tmax in data set [1] (Sprague-Dawley, rat, hepatic portal vein plasma, po, 15 g/kg, portal vein plasma, rats, oral BZD 15 g/kg, n = 5, read-out: Tmax) is 4 h; in data set [1] (Sprague-Dawley, rat, liver, po, 15 g/kg, liver, rats, oral BZD 15 g/kg, n = 5, read-out: Tmax), 20 h; in data set [1] (Sprague-Dawley, rat, systemic plasma, po, 15 g/kg, systemic plasma, rats, oral BZD 15 g/kg, n = 5, read-out: Tmax), 4 h. Further, the “ER (liver extraction ratio)” value in data set [1] (rats, oral BZD 15 g/kg) is 73.20%; in data set [1] (rats, oral BZD 15 g/kg, listed as timosaponin AIII) it was 73.21%.
`CC1=C(CC[C@H](C)CO[C@@H]2O[C@H](CO)[C@@H](O)[C@H](O)[C@H]2O)O[C@H]2C[C@H]3[C@@H]4CC[C@@H]5C[C@@H](O[C@@H]6O[C@H](CO)[C@H](O)[C@H](O)[C@H]6O[C@@H]6O[C@H](CO)[C@@H](O)[C@H](O)[C@H]6O)CC[C@]5(C)[C@H]4CC[C@]3(C)[C@@H]12` [Timosaponin BIII, timosaponin BIII]: the “Immobility time (mean ± SD, s) TST” value in the data set on ICR mice [2] (setting [5]) turned out to be 58.4 ± 15.6 s. In addition, the “Content (ng/g) 5-HT” value with serotonin (5-HT) was found to be 705.6 ± 47.7 ng/g. The Cmax in data set [1] (setting [6]) was found to be 349.41 ± 34.90 ng/g; in data set [1] (setting [7]), 198.23 ± 122.31 ng/g; in data set [1] (setting [8]) it was 158.66 ± 22.12 ng/g; in data set [1] (setting [9]), 226.39 ± 43.92 ng/mL; in data set [1] (setting [10]), 114.14 ± 13.38 ng/mL. Besides, the T1/2 in data set [1] (setting [6]) was 20.65 h; in data set [1] (setting [7]), 1.52 h; in data set [1] (setting [8]), 13.81 h; in data set [1] (setting [9]), 16.59 h; in data set [1] (setting [10]) it was 22.82 h. Also, the Tmax in data set [1] (setting [6]) is reported as 0.25 h; in data set [1] (setting [7]), 1.00 h; in data set [1] (setting [8]), 0.08 h; in data set [1] (setting [9]), 0.25 h; in data set [1] (setting [10]) it was 0.25 h. Also, the “ER (liver extraction ratio)” value in data set [1] (rats, oral BZD 15 g/kg) turned out to be 11.57%; in data set [1] (rats, oral BZD 15 g/kg, listed as timosaponin BIII), 11.57%. Further, the “AUC0–t” value in data set [1] (setting [9]) is reported as 369.20 ± 74.63 ng/mL; in data set [1] (setting [10]), 326.47 ± 54.29 ng/mL. The antidepressant effect result in the data set on depressive rats is reported as “significantly ameliorated depressive effects”. Moreover, the “Immobility time (mean ± SD, s) FST” value with ICR mice [3] (setting [11]) came to 68.6 ± 23.2 s. Also, the “Content (ng/g) DA” value in the data set on dopamine (DA) was 191.3 ± 69.8 ng/g.
`CNCCC(Oc1ccc(C(F)(F)F)cc1)c1ccccc1` (stereo not shown) [Fluoxetine, fluoxetine hydrochloride]: the “Immobility time (mean ± SD, s) TST” value was found to be 62.0 ± 36.2 s in the data set with ICR mice [2] (Table 1, oral administration for 8 days, n = 8, fluoxetine 10 mg/kg, BZD, ZD, BD 3 g/kg, control 109.1 ± 15.5); 69.5 ± 21.5 s with ICR mice [2] (Table 2, oral administration for 8 days, n = 8, fluoxetine 10 mg/kg, SZ, PZ, XZ 21.2 mg/kg, control 118.6 ± 18.1); 50.0 ± 22.2 s in the data set with ICR mice [2] (setting [5]). Besides, the “Content (ng/g) 5-HT” value in the data set on serotonin (5-HT) is 731.3 ± 104.6 ng/g. Further, the “Immobility time (mean ± SD, s) FST” value is reported as 84.8 ± 15.2 s in the data set on ICR mice [3] (Table 1, oral administration for 8 days, n = 8, fluoxetine 10 mg/kg, BZD, ZD, BD 3 g/kg, control 127.6 ± 40.9); 82.0 ± 21.3 s in the data set on ICR mice [3] (Table 2, oral administration for 8 days, n = 8, fluoxetine 10 mg/kg, SZ, PZ, XZ 21.2 mg/kg, control 134.3 ± 22.1); 70.2 ± 21.2 s with ICR mice [3] (setting [11]). Also, the “Content (ng/g) DA” value in the data set on dopamine (DA) worked out at 215.9 ± 36.5 ng/g.
